This note sets out measurements from patent publication US20140243194A1, “Fungicidal substituted 1--1H-[1,2,4]triazole compounds” (BASF SE, priority 2011, published 2014).

Assay [1] relates to Botrytis cinerea. In words: Preventative fungicidal control of Botrytis cinerea on leaves of green pepper (Botrci P1). It is filed as in vivo. As to conditions: 150 ppm spray; green pepper inoculated next day; % diseased leaf area after 5 days; untreated control 100. The protocol: The spray solutions were prepared in several steps: The stock solution were prepared: a mixture of acetone and/or dimethylsulfoxide and the wetting agent/emulsifier Wettol, which is based on ethoxylated alkylphenoles, in a relation (volume) solvent-emulsifier of 99 to 1 was added to 25 mg of the compound to give a total of 5 ml. Water was then added to total volume of 100 ml. This stock solution was diluted with the described solvent-emulsifier-water mixture to the given concentration. G1 Preventative Fungicidal Control of Botrytis cinerea on Leaves of Green Pepper (Botrci P1) Young seedlings of green pepper were grown in pots to the 4 to 5 leaf stage. These plants were sprayed to run-off with an aqueous suspension, containing the concentration of active ingredient or their mixture mentioned in the table below. The next day the plants were inoculated with a aqueous biomalt solution containig the spore suspension of Botrytis cinerea. Then the plants were immediately transferred to a humid chamber. After 5 days at 22 to 24° C. and a relative humidity close to 100% the extent of fungal attack on the leaves was visually assessed as % diseased leaf area.

Assay [2] has as its system Septoria tritici. Briefly: Preventative control of leaf blotch on wheat caused by Septoria tritici (Septtr P7). Type of assay: in vivo. The settings on record: 16 ppm spray, wheat inoculated seven days later. The method, then: The spray solutions were prepared in several steps: The stock solution were prepared: a mixture of acetone and/or dimethylsulfoxide and the wetting agent/emulsifier Wettol, which is based on ethoxylated alkylphenoles, in a relation (volume) solvent-emulsifier of 99 to 1 was added to 25 mg of the compound to give a total of 5 ml. Water was then added to total volume of 100 ml. This stock solution was diluted with the described solvent-emulsifier-water mixture to the given concentration. G2. Preventative Control of Leaf Blotch on Wheat Caused by Septoria tritici (Septtr P7) Leaves of pot-grown wheat seedling were sprayed to run-off with an aqueous suspension of the active compound or their mixture, prepared as described. The plants were allowed to air-dry. Seven days later the plants were inoculated with an aqueous spore suspension of Septoria tritici. Then the trial plants were immediately transferred to a humid chamber at 18-22° C. and a relative humidity close to 100%. After 4 days the plants were transferred to a chamber with 18-22° C. and a relative humidity close to 70%. After 4 weeks the extent of fungal attack on the leaves was visually assessed as % diseased leaf area. […]

Assay [3] has as its system Septoria tritici. Briefly: Curative control of leaf blotch on wheat caused by Septoria tritici (Septtr K7). It is filed as in vivo. The settings on record: 250 ppm spray seven days after inoculation (curative), untreated control 90. The protocol: The spray solutions were prepared in several steps: The stock solution were prepared: a mixture of acetone and/or dimethylsulfoxide and the wetting agent/emulsifier Wettol, which is based on ethoxylated alkylphenoles, in a relation (volume) solvent-emulsifier of 99 to 1 was added to 25 mg of the compound to give a total of 5 ml. Water was then added to total volume of 100 ml. This stock solution was diluted with the described solvent-emulsifier-water mixture to the given concentration. G2 Curative Control of Leaf Blotch on Wheat Caused by Septoria tritici (Septtr K7) Leaves of pot-grown wheat seedling were inoculated with an aqueous spore suspension of Septoria tritici. Then the trial plants were immediately transferred to a humid chamber at 18-22° C. and a relative humidity close to 100%. After 4 days the plants were transferred to a chamber with 18-22° C. and a relative humidity close to 70%. Seven days after inoculation the plants were sprayed to run-off with an aqueous suspension of the active compound or their mixture, prepared as described. Then the plants were transferred back to the chamber with 18-22° C. and a relative humidity close to 70%. After 4 weeks the extent of fungal attack on the leaves was visually assessed as % diseased leaf area.

A further assay deals with Phakopsora pachyrhizi. Briefly: Protective control of soy bean rust on soy beans caused by Phakopsora pachyrhizi (Phakpa P2). It is filed as in vivo. The settings on record: 250 ppm spray; soy bean inoculated 2 days later; untreated control 90. The method, then: The spray solutions were prepared in several steps:
The stock solution were prepared: a mixture of acetone and/or dimethylsulfoxide and the wetting agent/emulsifier Wettol, which is based on ethoxylated alkylphenoles, in a relation (volume) solvent-emulsifier of 99 to 1 was added to 25 mg of the compound to give a total of 5 ml. Water was then added to total volume of 100 ml. This stock solution was diluted with the described solvent-emulsifier-water mixture to the given concentration.
G3 Protective Control of Soy Bean Rust on Soy Beans Caused by Phakopsora pachyrhizi (Phakpa P2)
Leaves of pot-grown soy bean seedlings were sprayed to run-off with an aqueous suspension, containing the concentration of active ingredient or their mixture as described below. The plants were allowed to air-dry. The trial plants were cultivated for 2 days in a greenhouse chamber at 23-27° C. and a relative humidity between 60 and 80%. Then the plants were inoculated with spores of Phakopsora pachyrhizi. To ensure the success the artificial inoculation, the plants were transferred to a humid chamber with a relative humidity of about 95% and 20 to 24° C. for 24 h. The trial plants were cultivated for fourteen days in a greenhouse chamber at 23-27° C. and a relative humidity between 60 and 80%. The extent of fungal attack on the leaves was visually assessed as % diseased leaf area.

Assay [4] concerns Botrytis cinerea. Briefly: Long lasting control of Botrytis cinerea on leaves of green pepper (Botrci P7). Type of assay: in vivo. As to conditions: 63 ppm spray; green pepper inoculated 7 days later; untreated control 100. The protocol:
The spray solutions were prepared in several steps: The stock solution were prepared: a mixture of acetone and/or dimethylsulfoxide and the wetting agent/emulsifier Wettol, which is based on ethoxylated alkylphenoles, in a relation (volume) solvent-emulsifier of 99 to 1 was added to 25 mg of the compound to give a total of 5 ml. Water was then added to total volume of 100 ml. This stock solution was diluted with the described solvent-emulsifier-water mixture to the given concentration. G4 Long Lasting Control of Botrytis cinerea on Leaves of Green Pepper (Botrci P7) Young seedlings of green pepper were grown in pots to the 4 to 5 leaf stage. These plants were sprayed to run-off with an aqueous suspension, containing the concentration of active ingredient or their mixture mentioned in the table below. The plants were then cultivated in the greenhouse for 7 days and then inoculated with a aqueous biomalt solution containig the spore suspension of Botrytis cinerea. Then the plants were immediately transferred to a humid chamber. After 5 days at 22 to 24° C. and a relative humidity close to 100% the extent of fungal attack on the leaves was visually assessed as % diseased leaf area.

Another assay concerns Alternaria solani. In words: Microtest: activity against early blight caused by Alternaria solani (Alteso). It is filed as cell-based. The settings on record: micro titer plate, 405 nm, 7 days after inoculation, relative growth vs compound-free control (100%). The protocol: Microtest The active compounds were formulated separately as a stock solution having a concentration of 10000 ppm in dimethyl sulfoxide. M1: Activity Against Early Blight Caused by Alternaria solani (Alteso) The stock solutions were mixed according to the ratio, pipetted onto a micro titer plate (MTP) and diluted with water to the stated concentrations. A spore suspension of Alternaria solani in an aqueous biomalt or yeast-bactopeptone-glycerine solution was then added. The plates were placed in a water vapor-saturated chamber at a temperature of 17° C. Using an absorption photometer, the MTPs were measured at 405 nm 7 days after the inoculation. The measured parameters were compared to the growth of the active compound-free control variant (100%) and the fungus-free and active compound-free blank value to determine the relative growth in % of the pathogens in the respective active compounds.

The test system of the next assay is Puccinia recondita. In words: Preventative control of brown rust on wheat caused by Puccinia recondita (Puccrt P7). It is filed as in vivo. The settings on record: 250 ppm spray; wheat inoculated seven days later; untreated plants 90% infected. The protocol:
The spray solutions were prepared in several steps: The stock solution were prepared: a mixture of acetone and/or dimethylsulfoxide and the wetting agent/emulsifier Wettol, which is based on ethoxylated alkylphenoles, in a relation (volume) solvent-emulsifier of 99 to 1 was added to 25 mg of the compound to give a total of 5 ml. Water was then added to total volume of 100 ml. This stock solution was diluted with the described solvent-emulsifier-water mixture to the given concentration. G3. Preventative Control of Brown Rust on Wheat Caused by Puccinia recondita (Puccrt P7) The first two developed leaves of pot-grown wheat seedling were sprayed to run-off with an aqueous suspension, containing the concentration of active ingredient or their mixture as described below. Seven days later the plants were inoculated with spores of Puccinia recondita. To ensure the success the artificial inoculation, the plants were transferred to a humid chamber without light and a relative humidity of 95 to 99% and 20 to 24° C. for 24 h. Then the trial plants were cultivated for 6 days in a greenhouse chamber at 20-24° C. and a relative humidity between 65 and 70%. The extent of fungal attack on the leaves was visually assessed as % diseased leaf area.

Regarding `C#CCOC(Cn1cncn1)c1ccc(Oc2ccc(Cl)cc2)cc1Cl` (centres unmarked) [DE 3801223 table 1, compound 30], in the assay on Botrytis cinerea [1], the “Disease (%) at 150 ppm Botrci P1” value is on record as 60%. Besides, the “Disease (%) at 16 ppm Septtr P7” value in the assay with Septoria tritici [2] (% diseased leaf area after 4 weeks, untreated control 90) stood at 60%; in the assay on Septoria tritici [2] (section C table), 60%. For the same compound, the “Disease (%) at 250 ppm Septtr K7” value in the assay on Septoria tritici [3] was 40%. The “Disease (%) at 250 ppm Phakpa P2” value in the assay on Phakopsora pachyrhizi is on record as 70%. Besides, the “Disease (%) at 63 ppm Botrci p7” value in the assay on Botrytis cinerea [4] stood at 80%. Besides, the “Growth (%) at 0.008 ppm Alteso” value in the assay on Alternaria solani is recorded as 48%.

`C#CCOC(Cn1cncn1)(c1ccc(Oc2ccc(Cl)cc2)cc1Cl)C(C)C` (centres unmarked) [I-4, 1-[2-[2-chloro-4-(4-chlorophenoxy)phenyl]-3-methyl-2-prop-2-ynoxy-butyl]-1,2,4-triazole]: the “infection (% diseased leaf area) Puccrt P7” value in the assay on Puccinia recondita was determined as 0%.
